Holding throughout (format): biochemical, Sphingopyxis chilensis No. 0522
For assay [1], the system named is dipeptide-degrading enzyme. Kind of assay: Influence of metal ions and the like on enzymatic activity (dipeptide-degrading activity, Example 3 method). Here is the method: (§1) The dipeptide-degrading activity may be measured by quantifying Fru-Val or histidine formed upon the degradation of Fru-Val-His. The method for quantifying histidine is described below. The amount of enzyme degrading 1 µmol of Fru-Val-His in 1 minute is defined as 1 unit of enzymatic activity (U). The reagents (1), (2), and (3), and a substrate solution used for measuring the activity were prepared as described below.
(§2) Substrate solution: Fru-Val-His (Peptide Institute Inc.) was dissolved in 100 mM of a MOPS buffer (pH 7.0), thus obtaining 40 mM of substrate solution.
0.02 mL of 1.40 mM substrate solution and 0.16 mL of the reagent (1) were accurately dispensed and mixed, and preincubated at 37°C for 5 minutes. Thereafter, 0.02 mL of enzyme solution was accurately added to and mixed with the mixture, and allowed to react at 37°C. As a blank test, 0.02 mL of the reagent (1) was added in place of the enzyme solution. After a lapse of 10 minutes, 0.8 mL of the reagent (3) was accurately added to and mixed with the mixture, and allowed to react at 37°C. After a lapse of 15 minutes, the absorbance at 505 nm was measured, and the dipeptide-degrading activity was calculated according to the calculation formula described below. The enzyme solution was appropriately diluted with the reagent (1) such that ΔABS = (As-Ab) ≤ 0.50 Abs, and used as the sample. The symbols and numerical values in the calculation formula represents the followings. • As: absorbance of enzyme solution • Ab: absorbance of blank solution • ΔABS: As - Ab • 12.88: millimole absorptivity (mmol/L/cm) of quinone pigment at 505 nm • 10: reaction time (min) • 2: coefficient representing that one molecule of quinone pigment is formed from two molecules of H2O2 • 1: light path length (cm) • 1.0: total amount of reaction solution (mL) • 0.02: Amount of enzyme solution used for reaction (mL) • n: enzyme solution dilution ratio
Calculation formula Activity(U/mL) = ΔABS/10/12.88 × 2 × 1 × 1.0/0.02 × n [formula]
The enzymatic activity was measured in the same manner as Example 3, except that the reagent (1) was replaced with various metals and the like at specified concentrations (Table 2) and a 100 mM PIPES buffer (pH 6.2) containing 0.1% Triton X-100.

Assay [2] has as its system dipeptide-degrading enzyme. The assay can be described thus: Substrate specificity: dipeptide-degrading activity measurement of Example 3 with changed substrate. Conditions: substrate changed from Fru-Val-His; 37°C, pH 6.2. How it is done:
as §1, §2
0.02 mL of 1.40 mM substrate solution and 0.16 mL of the reagent (1) were accurately dispensed and mixed, and preincubated at 37°C for 5 minutes. Thereafter, 0.02 mL of enzyme solution was accurately added to and mixed with the mixture, and allowed to react at 37°C. As a blank test, 0.02 mL of the reagent (1) was added in place of the enzyme solution. After a lapse of 10 minutes, 0.8 mL of the reagent (3) was accurately added to and mixed with the mixture, and allowed to react at 37°C. After a lapse of 15 minutes, the absorbance at 505 nm was measured, and the dipeptide-degrading activity was calculated according to the calculation formula described below. The enzyme solution was appropriately diluted with the reagent (1) such that ΔABS = (As-Ab) ≤ 0.50 Abs, and used as the sample. […]

Assay [3] relates to dipeptide-degrading enzyme. Kind of assay: Reactivity in actual measurement system for glycosylated dipeptide (Example 15 method, reagents E, B, C, absorbance at 555 nm). Here is the method: A glycosylated dipeptide was measured using a glycosylated hemoglobin β chain dipeptide Fru-Val-His (Peptide Institute Inc.). The reagents B and C were prepared according to the following recipes, and used for the study. Since the specimen was a glycosylated dipeptide, no protease was necessary. Therefore, the reagent E used herein had the same composition with the reagent A except that no protease was used. However, the glycosylated dipeptide may be quantified only with the reagents B and C without using the reagent E. The dipeptide-degrading enzyme used herein is the purified enzyme obtained in Example 6.
40 mM Fru-Val-His was prepared, and diluted with a 100 mM MOPS buffer (pH 7.0), thus making 0.1, 0.2, 0.4, 0.6, and 0.8 mM Fru-Val-His solutions. To 0.01 mL each of the diluting solutions, 0.04 mL of the reagent E was added, and allowed to react at 37°C for 5 minutes. 0.1 mL of the reagent B was added to each of the reaction liquids, and allowed to react at 37°C for 10 minutes. Thereafter, 0.9 mL of the reagent C was added to each of the reaction liquids, and allowed to react at 37°C. The absorbance at 555 nm was measured, and the increase (ΔOD) of the absorbance 5 minutes after initiation of the reaction was determined. […]

The mark [4] stands for this setting: Conc. 2mM, 100 mM PIPES buffer (pH 6.2), 0.1% Triton X-100, None = 100.
Where [5] appears, read: Conc. 1mM, 100 mM PIPES buffer (pH 6.2), 0.1% Triton X-100, None = 100.
The mark [6] stands for this setting: Conc. 50mM, 100 mM PIPES buffer (pH 6.2), 0.1% Triton X-100, None = 100.

Like-named read-outs stand apart in the source and are kept apart here. Non-standard residues stand in square brackets, D forms with d. Residues, ends and D or L forms follow the SMILES beside them. *: point of attachment. Sta = CC(C)C[C@H](N)[C@@H](O)CC(=O)O; Isovaleryl = CC(C)CC(=O)*

With `OCCS` [2-Mercaptoethanol], the “Relative activity (%)” value in assay [1] (setting [4]) is 11%.

On to `[Ba+2].[Cl-].[Cl-]` [BaCl2], for which, in assay [1] (setting [5]), the “Relative activity (%)” value turned out to be 105%.

Regarding `[Ca+2].[Cl-].[Cl-]` [CaCl2], in assay [1] (setting [5]), the “Relative activity (%)” value was determined as 162%.

Consider `[Cl-].[Cl-].[Co+2]` [CoCl2], for which the “Relative activity (%)” value in assay [1] (setting [5]) is reported as 676%. Moreover, the “influences of the metal ions and the like on the enzymatic activity” value (shortened to “influences”) in assay [1] (summary in words of Table 2) is reported as “activated”.

On to `[Cl][Cu][Cl]` [CuCl2], for which the “Relative activity (%)” value in assay [1] (setting [5]) was 75%.

As to `O=C(O)CN(CCN(CC(=O)O)CC(=O)O)CC(=O)O` [EDTA], in assay [1], the “influences” value was “deactivated”. The “Relative activity (%)” value in assay [1] (pH 6.2, 5000 µM) amounted to 1%.

`CC(C)C[C@H](NC(=O)[C@@H](NCC(=O)[C@@H](O)[C@H](O)[C@H](O)CO)C(C)C)C(=O)O` [Fru-Val-Leu, fructosyl valyl leucine]: in assay [2], the “activity value of the dipeptide-degrading enzyme for the substrate, relative to that for Fru-Val-His” value was 4.9%. In assay [3] (0.8 mM substrate, converted using Fig. 7), the “absorbance change converted into the Fru-Val-His concentration” value stood at 0.14 mM. Besides, the reactivity in assay [3] (for the 0.8 mM substrate, relative to Fru-Val-His) was found to be 18%.

Consider `[Cl-].[Cl-].[Mg+2]` [MgCl2], for which the “Relative activity (%)” value in assay [1] (setting [5]) is 261%. The “influences” value in assay [1] (summary in words of Table 2) is on record as “activated”.

With `[Cl][Mn][Cl]` [MnCl2], the “Relative activity (%)” value in assay [1] (setting [5]) stood at 137%.

For `O=C(O)CI` [Monoiode acetate], the “Relative activity (%)” value in assay [1] (pH 6.2, 2000 µM) came to 111%.

In the case of `[Cl][Ni][Cl]` [NiCl2], the “Relative activity (%)” value in assay [1] (setting [5]) is reported as 156%.

On to `O=S(=O)(F)Cc1ccccc1` [PMSF], for which the “Relative activity (%)” value in assay [1] (setting [4]) is on record as 97%.

As to `CC(C)CC(=O)N[C@H](C(=O)N[C@H](C(=O)N[C@@H](CC(C)C)[C@@H](O)CC(=O)N[C@@H](C)C(=O)N[C@@H](CC(C)C)[C@@H](O)CC(=O)O)C(C)C)C(C)C` [Pepstatin A] (Isovaleryl-VV[Sta]A[Sta]-OH), the “Relative activity (%)” value in assay [1] (Conc. 10 µg/ml, 100 mM PIPES buffer (pH 6.2), 0.1% Triton X-100, None = 100) was 100%.

For the compound `CCCCCCCCCCCCOS(=O)(=O)O` [SDS], in assay [1] (setting [4]), the “Relative activity (%)” value was determined as 9%.

On to `O=P1([O-])OP(=O)([O-])OP(=O)([O-])OP(=O)([O-])OP(=O)([O-])OP(=O)([O-])O1.[Na+].[Na+].[Na+].[Na+].[Na+].[Na+]` [Sodium Hexametaphosphate], for which, in assay [1] (setting [4]), the “Relative activity (%)” value came to 4%.

Take `O=C(O)CS` [Thioglycolic acid]: the “Relative activity (%)” value in assay [1] (setting [4]) stood at 3%.

For `[Cl-].[Cl-].[Zn+2]` [ZnCl2], in assay [1] (setting [5]), the “Relative activity (%)” value turned out to be 257%. In assay [1] (summary in words of Table 2), the “influences” value is “activated”.

With `c1cnc2c(c1)ccc1cccnc12` [o-Phenanthroline], the “Relative activity (%)” value in assay [1] (setting [4]) was 0%.

With `c1ccc(-c2ccccn2)nc1` [α, α'-Dipyridyl], the “Relative activity (%)” value in assay [1] (setting [4]) is listed as 1%. Further, in assay [1] (summary in words of Table 2), the “influences” value was “deactivated”.

For the compound KCl, in assay [1] (setting [6]), the “Relative activity (%)” value is listed as 97%.

NH4Cl: the “Relative activity (%)” value in assay [1] (setting [6]) amounted to 85%.

NaCl: in assay [1] (pH 6.2, 50000 µM), the “Relative activity (%)” value came to 98%.

The values above are taken from patent EP2093288A1, “NOVEL DIPEPTIDE-DIGESTING ENZYME, METHOD OF PRODUCING THE SAME, METHOD OF ASSAYING GLYCATED PROTEIN BY USING THE DIPEPTIDE-DIGESTING ENZYME AND REAGENT COMPOSITION TO BE USED THEREIN” (Amano Enzyme Inc., priority 2006, dated 2008).
